# Measurements published in patent publication US20160082015A1, “METHODS, COMPOSITIONS AND KITS FOR PROMOTING MOTOR NEURON SURVIVAL AND TREATING AND DIAGNOSING NEURODEGENERATIVE DISORDERS” (PRESIDENT AND FELLOWS OF HARVARD COLLEGE, priority 2013, published 2016).
# Test system: SOD1^G93A protein
# Test: SOD1 protein levels by Western blotting and single cell imaging
# Type: cell-based, human
# Procedure: In FIG. 5A cultures grown for 21 days in the indicated conditions were analyzed for levels of human SOD1 protein. The antibody used was specific for human SOD1, as is seen by the lack of staining on wild-type mouse MNs (HB9::GFP). When analyzed on day 21, levels of mutant SOD1^G93A protein, but not wt SOD1 protein, were decreased when cells were treated with kenpaullone in the absence of trophic factors. When analyzed on day 21, SOD1^G93A protein, but not wt SOD1 protein, was decreased when cultures were treated with kenpaullone in the presence of trophic factors as well (FIG. 5B). […] By this analysis, again on day 21, the average amount of SOD1 per MN was decreased by kenpaullone treatment in both +TF and −TF conditions. Scale bar represents 50 μm (FIG. 5C). Data are presented as mean±SEM. * p<0.05, *** p<0.001 (Student's t test, two-tailed).
# Immunostaining was carried out using standard protocols (Makhortova et al., 2011). […]
# Since the additional death undergone by the SOD1^G93A/HB9::GFP MNs seems likely to relate to their expression of high levels of SOD1^G93A protein, one possibility is that kenpaullone could act in part by reducing those levels. Kenpaullone was added to cultures on day 4, and the levels of mutant SOD1^G93A protein were analyzed by Western blotting on day 21 (FIGS. 5A and 5B). […]
smiles,measurement,setting,value
O=C1Cc2c([nH]c3ccc(Br)cc23)-c2ccccc2N1 [Kenpaullone],levels of SOD1^G93A protein,"added day 4, Western blotting day 21, with and without trophic factors",sharp decrease
same,"mutant protein levels, untreated versus treated cultures",until sometime after 15 days of treatment,no differences
